Measured values: patent US10138225B2 (Achillion Pharmaceuticals, Inc., priority 2015, dated 2018)

Molecular target: T1, Human Factor D (Homo sapiens, UniProt P00746)
T1 construct: purified from human serum; purchased Complement Technology, Inc; host or cells: human serum (natural protein, not recombinant)
Test: Human Factor D Assay
Assay type: biochemical
Conditions: Table 1; Factor D 80 nM, substrate Z-L-Lys-SBzl; read-out: IC50
Description: Human Factor D (purified from human serum, Complement Technology, Inc.) at 80 nM final concentration is incubated with test compound at various concentrations for 5 minutes at room temperature in 50 mM Tris, 1M NaCl, pH 7.5. A synthetic substrate Z-L-Lys-SBzl and DTNB (Ellman's reagent) are added to final concentrations of 100 μM each. Absorbance at 405 nm (A405) is recorded at 30 second intervals for 30 minutes using a microplate spectrophotometer. IC50 values are calculated by nonlinear regression of complement Factor D reaction rates as a function of test compound concentration.

T1 sequence (P00746 26-253): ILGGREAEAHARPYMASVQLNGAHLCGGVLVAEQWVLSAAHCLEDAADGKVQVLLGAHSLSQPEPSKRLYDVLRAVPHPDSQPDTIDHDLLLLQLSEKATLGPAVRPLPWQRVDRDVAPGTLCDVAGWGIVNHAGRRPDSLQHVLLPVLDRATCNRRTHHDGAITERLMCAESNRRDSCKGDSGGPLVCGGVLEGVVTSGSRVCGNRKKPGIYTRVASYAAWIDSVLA

Compound	IC50
CC(=O)c1cn(CC(=O)N2C[C@H](F)C[C@H]2C(=O)NCc2cccc(Cl)c2F)c2ccc(NC(=O)NC3CC3)cc12 [Compound 1, (2S,4R)-1-(2-(3-acetyl-5-(3-cyclopropylureido)-1H-indol-1-yl)acetyl)-N-(3-chloro-2-fluorobenzyl)-4-fluoropyrrolidine-2-carboxamide]	< 1000 nM
CC(=O)c1cn(CC(=O)N2C[C@H](F)C[C@H]2C(=O)NCc2cccc(Cl)c2F)c2ccc(NC(=O)NCc3nn[nH]n3)cc12 [Compound 2, (2S,4R)-1-(2-(5-(3-((2H-tetrazol-5-yl)methyl)ureido)-3-acetyl-1H-indol-1-yl)acetyl)-N-(3-chloro-2-fluorobenzyl)-4-fluoropyrrolidine-2-carboxamide]	< 1000 nM
CC(=O)c1cn(CC(=O)N2[C@@H]3C[C@@H]3C[C@H]2C(=O)NCc2cccc(Cl)c2F)c2ccc(NC(=O)NC3CC3)cc12 [Compound 3, (1R,3S,5R)-2-(2-(3-acetyl-5-(3-cyclopropylureido)-1H-indol-1-yl)acetyl)-N-(3-chloro-2-fluorobenzyl)-2-azabicyclo[3.1.0] hexane-3-carboxamide]	< 1000 nM
CC(=O)c1cn(CC(=O)N2C[C@H](F)C[C@H]2C(=O)NCc2cccc(Cl)c2F)c2ccc(NC(=O)NC3(C)CC3)cc12 [Compound 4, (2S,4R)-1-(2-(3-acetyl-5-(3-(1-methylcyclopropyl)ureido)-1H-indol-1-yl)acetyl)-N-(3-chloro-2-fluorobenzyl)-4-fluoropyrrolidine-2-carboxamide]	< 1000 nM
CC(=O)c1cn(CC(=O)N2[C@@H]3C[C@@H]3C[C@H]2C(=O)N[C@H](C)c2cccc(Cl)c2F)c2ccc(NC(=O)NC3CC3)cc12 [Compound 5, (1R,3S,5R)-2-(2-(3-acetyl-5-(3-cyclopropylureido)-1H-indol-1-yl)acetyl)-N-((R)-1-(3-chloro-2-fluorophenyl)ethyl)-2-azabicyclo[3.1.0] hexane-3-carboxamide]	< 1000 nM
CC(=O)c1cn(CC(=O)N2C[C@H](F)C[C@H]2C(=O)NCc2cccc(Cl)c2F)c2ccc(NC(=O)NC(C)C)cc12 [Compound 6, (2S,4R)-1-(2-(3-acetyl-5-(3-isopropylureido)-1H-indol-1-yl)acetyl)-N-(3-chloro-2-fluorobenzyl)-4-fluoropyrrolidine-2-carboxamide]	< 1000 nM
CC(=O)c1cn(CC(=O)N2C[C@H](F)C[C@H]2C(=O)NCc2cccc(Cl)c2F)c2ccc(NC(=O)NCc3ccon3)cc12 [Compound 7, (2S,4R)-1-(2-(3-acetyl-5-(3-(isoxazol-3-ylmethyl)ureido)-1H-indol-1-yl)acetyl)-N-(3-chloro-2-fluorobenzyl)-4-fluoropyrrolidine-2-carboxamide]	< 1000 nM
CC(=O)c1cn(CC(=O)N2C[C@H](F)C[C@H]2C(=O)NCc2cccc(Cl)c2F)c2ccc(NC(=O)NCc3ncccn3)cc12 [Compound 8, (2S,4R)-1-(2-(3-acetyl-5-(3-(pyrimidin-2-ylmethyl)ureido)-1H-indol-1-yl)acetyl)-N-(3-chloro-2-fluorobenzyl)-4-fluoropyrrolidine-2-carboxamide]	< 1000 nM
CC(=O)c1cn(CC(=O)N2C[C@H](F)C[C@H]2C(=O)NCc2cccc(Cl)c2F)c2ccc(NC(=O)N3CCCC3)cc12 [Compound 9, N-(3-acetyl-1-(2-((2S,4R)-2-(3-chloro-2-fluorobenzylcarbamoyl)-4-fluloropyrrolidin-1-yl)-2-oxoethyl)-1H-indol-5-yl)pyrrolidine-1-carboxamide]	< 1000 nM
CC(=O)c1cn(CC(=O)N2C[C@H](F)C[C@H]2C(=O)Nc2cccc(OC(F)(F)F)c2F)c2ccc(NC(=O)NC3CC3)cc12 [Compound 10, (2S,4R)-1-(2-(3-acetyl-5-(3-cyclopropylureido)-1H-indol-1-yl)acetyl)-4-fluoro-N-(2-fluoro-3-(trifluoromethoxy)phenyl)pyrrolidine-2-carboxamide]	< 1000 nM
CC(=O)c1cn(CC(=O)N2[C@@H]3C[C@@H]3C[C@H]2C(=O)Nc2cccc(OC(F)(F)F)c2F)c2ccc(NC(=O)NC3CC3)cc12 [Compound 11, (1R,3S,5R)-2-(2-(3-acetyl-5-(3-cyclopropylureido)-1H-indol-1-yl)acetyl)-N-(2-fluoro-3-(trifluoromethoxy)phenyl)-2-azabicyclo[3.1.0] hexane-3-carboxamide]	< 1000 nM
CC(=O)c1cn(CC(=O)N2[C@@H]3C[C@@H]3C[C@H]2C(=O)NCc2cccc(Cl)c2F)c2ccc(NC(=O)N3CCCC3)cc12 [Compound 12, (1R,3S,5R)-2-(2-(3-acetyl-5-(pyrrolidine-1-carboxamido)-1H-indol-1-yl)acetyl)-N-(3-chloro-2-fluorobenzyl)-2-azabicyclo[3.1.0] hexane-3-carboxamide]	< 1000 nM
CC(=O)c1cn(CC(=O)N2C[C@H](F)C[C@H]2C(=O)NCc2cccc(Cl)c2F)c2ccc(NC(=O)N3CCC(F)(F)C3)cc12 [Compound 13, N-(3-acetyl-1-(2-((2S,4R)-2-(3-chloro-2-fluorobenzylcarbamoyl)-4-fluoropyrrolidin-1-yl)-2-oxoethyl)-1H-indol-5-yl)-3,3-difluoropyrrolidine-1-carboxamide]	< 1000 nM
CC(=O)c1cn(CC(=O)N2C[C@H](F)C[C@H]2C(=O)NCc2cccc(Cl)c2F)c2ccc(NC(=O)OC3CC3)cc12 [Compound 14, cyclopropyl 3-acetyl-1-(2-((2S,4R)-2-(3-chloro-2-fluorobenzylcarbamoyl)-4-fluoropyrrolidin-1-yl)-2-oxoethyl)-1H-indol-5-ylcarbamate]	< 1000 nM
CC(=O)c1cn(CC(=O)N2C[C@H](F)C[C@H]2C(=O)NCc2cccc(Cl)c2F)c2ccc(NC(=O)OCC3CC3)cc12 [Compound 15, cyclopropylmethyl 3-acetyl-1-(2-((2S,4R)-2-(3-chloro-2-fluorobenzylcarbamoyl)-4-fluoropyrrolidin-1-yl)-2-oxoethyl)-1H-indol-5-ylcarbamate]	< 1000 nM
CC(=O)c1cn(CC(=O)N2C[C@H](F)C[C@H]2C(=O)NCc2cccc(Cl)c2F)c2ccc(NC(=O)N3CCCC(F)(F)C3)cc12 [Compound 16, N-(3-acetyl-1-(2-((2S,4R)-2-(3-chloro-2-fluorobenzylcarbamoyl)-4-fluoropyrrolidin-1-yl)-2-oxoethyl)-1H-indol-5-yl)-3,3-difluoropiperidine-1-carboxamide]	< 1000 nM
CC(=O)c1cn(CC(=O)N2C[C@H](F)C[C@H]2C(=O)Nc2cccc(OC(F)(F)F)c2F)c2ccc(NC(=O)N3CCCC(F)(F)C3)cc12 [Compound 17, N-(3-acetyl-1-(2-((2S,4R)-4-fluoro-2-(2-fluoro-3-(trifluoromethoxy)phenylcarbamoyl)pyrrolidin-1-yl)-2-oxoethyl)-1H-indol-5-yl)-3,3-difluoropiperidine-1-carboxamide]	< 1000 nM
CC(=O)c1cn(CC(=O)N2C[C@H](F)C[C@H]2C(=O)Nc2cccc(-c3ccccc3Cl)c2F)c2ccc(NC(=O)N3CCCC(F)(F)C3)cc12 [Compound 18, N-(3-acetyl-1-(2-((2S,4R)-2-(2′-chloro-2-fluorobiphenyl-3-ylcarbamoyl)-4-fluoropyrrolidin-1-yl)-2-oxoethyl)-1H-indol-5-yl)-3,3-difluoropiperidine-1-carboxamide]	< 1000 nM
CC(=O)c1cn(CC(=O)N2C[C@H](F)C[C@H]2C(=O)NCc2cccc(Cl)c2F)c2ccc(NC(=O)Nc3ccon3)cc12 [Compound 19, (2S,4R)-1-(2-(3-acetyl-5-(3-isoxazol-3-ylureido)-1H-indol-1-yl)acetyl)-N-(3-chloro-2-fluorobenzyl)-4-fluoropyrrolidine-2-carboxamide]	< 1000 nM
CC(=O)c1cn(CC(=O)N2C[C@H](F)C[C@H]2C(=O)Nc2cccc(C(F)(F)F)n2)c2ccc(NC(=O)N3CCCC(F)(F)C3)cc12 [Compound 20, N-(3-acetyl-1-(2-((2S,4R)-4-fluoro-2-(6-(trifluoromethyl)pyridin-2-ylcarbamoyl)pyrrolidin-1-yl)-2-oxoethyl)-1H-indol-5-yl)-3,3-difluoropiperidine-1-carboxamide]	< 1000 nM
CC(=O)c1cn(CC(=O)N2C[C@H](F)C[C@H]2C(=O)NCc2cccc(Cl)c2F)c2ccc(NC(=O)NCC(F)(F)F)cc12 [Compound 21, (2S,4R)-1-(2-(3-acetyl-5-(3-(2,2,2-trifluoroethyl)ureido)-1H-indol-1-yl)acetyl)-N-(3-chloro-2-fluorobenzyl)-4-fluoropyrrolidine-2-carboxamide]	< 1000 nM
CC(=O)c1cn(CC(=O)N2C[C@H](F)C[C@H]2C(=O)NCc2cccc(Cl)c2F)c2ccc(NC(=O)N3Cc4cncnc4C3)cc12 [Compound 22, N-(3-acetyl-1-(2-((2S,4R)-2-(3-chloro-2-fluorobenzylcarbamoyl)-4-fluoropyrrolidin-1-yl)-2-oxoethyl)-1H-indol-5-yl)-5H-pyrrolo[3,4-d]pyrimidine-6(7H)-carboxamide]	< 1000 nM
CC(=O)c1cn(CC(=O)N2C[C@H](F)C[C@H]2C(=O)NCc2cccc(Cl)c2F)c2ccc(NC(=O)Nc3cncnc3)cc12 [Compound 23, (2S,4R)-1-(2-(3-acetyl-5-(3-pyrimidin-5-ylureido)-1H-indol-1-yl)acetyl)-N-(3-chloro-2-fluorobenzyl)-4-fluoropyrrolidine-2-carboxamide]	< 1000 nM
NC(=O)c1nn(CC(=O)N2C[C@H](F)C[C@H]2C(=O)Nc2cccc(-c3ccccc3Cl)c2F)c2ccc(NC(=O)N3CCCC(F)(F)C3)cc12 [Compound 24, 1-(2-((2S,4R)-2-(2′-chloro-2-fluorobiphenyl-3-ylcarbamoyl)-4-fluoropyrrolidin-1-yl)-2-oxoethyl)-5-(3,3-difluoropiperidine-1-carboxamido)-1H-indazole-3-carboxamide]	< 1000 nM
